Experimental data published in patent US7960425B2, “Pyrazole compounds and thrombopoietin receptor activators” (Nissan Chemical Industries, Ltd., priority 2005, dated 2011).

Tested on: Human bone marrow CD34+ cells
Experiment: Megakaryocyte colony stimulating activity (megakaryocyte colony forming method)
Type: cell-based
Details: 11 days, MegaCult-C, colonies of at least 8 stained megakaryocyte cells, average of at least 2 wells
Experimental: The action of the compounds of Synthetic Examples 2 to 6 of the present invention and Reference Synthetic Examples 6 to 7 on the proliferation, differentiation and maturation of megakaryocyte cells was measured by the megakaryocyte colony forming method using human bone marrow cells. Human bone marrow CD34^+ cells (Cambrex Bio Science Walkersville) were incubated on 2-well chamber slide for 11 days in a CO2 incubator (5% Co2, 37° C.) using MegaCult™-C (StemCell Technologies) containing 0.1% (v/v) of the compounds of Synthetic Examples dissolved in dimethyl sulfoxide. After dehydration and fixation, the cells were stained with an anti-glycoprotein IIb/IIIa antibody in accordance with the instruction by the manufacturer. The colonies consisting of at least 8 stained megakaryocyte cells in each well were counted under a microscope. The megakaryocyte colony counts in at least 2 wells were averaged.

Row | Structure (SMILES) | Colony count at 1 μg/mL
1 | CC(=NNC(=O)c1ccc(C(=O)NCc2ccccn2)s1)c1nn(C)c(-c2ccc(C(F)(F)F)cc2)c1O.[K] [Synthetic Example 2, 5-{1-[4-hydroxy-1-methyl-5-(4-trifluoromethylphenyl)-1H-pyrazol-3-yl]ethylidenehydrazinocarbonyl}thiophene-2-carboxylic Acid 2-picolylamide Potassium Salt] | 121
2 | CC(=NNC(=O)c1ccc(C(=O)NCc2ccncc2)s1)c1nn(C)c(-c2ccc(Cl)c(Cl)c2)c1O [Synthetic Example 6, 5-{1-[5-(3,4-dichlorophenyl)-4-hydroxy-1-methyl-1H-pyrazol-3-yl]ethylidenehydrazinocarbonyl}thiophene-2-carboxylic Acid 4-picolylamide] | 173
3 | COCCNC(=O)c1ccc(C(=O)NN=C(C)c2nn(C)c(-c3ccc(C(F)(F)F)cc3)c2O)s1 [Synthetic Example 5, 5-{1-[4-hydroxy-1-methyl-5-(4-trifluoromethylphenyl)-1H-pyrazol-3-yl]ethylidenehydrazinocarbonyl}thiophene-2-carboxylic Acid 2-methoxyethylamide] | 335
4 | CC(=NNC(=O)c1ccc(C(=O)NCc2ccncc2)s1)c1nn(C)c(-c2ccc(C(F)(F)F)cc2)c1O [Synthetic Example 4, 5-{1-[4-hydroxy-1-methyl-5-(4-trifluoromethylphenyl)-1H-pyrazol-3-yl]ethylidenehydrazinocarbonyl}thiophene-2-carboxylic Acid 4-picolyamide] | 111
5 | CC(=NNC(=O)c1ccc(C(=O)NC(C)C)s1)c1nn(C)c(-c2ccc(C(F)(F)F)cc2)c1O [Synthetic Example 3, 5-{1-[4-hydroxy-1-methyl-5-(4-trifluoromethylphenyl)-1H-pyrazol-3-yl]ethylidenehydrazinocarbonyl}thiophene-2-carboxylic Acid 2-propylamide] | 141
6 | C/C(=N\NC(=O)c1ccc(C(=O)O)s1)c1nn(C)c(-c2ccc(C(C)(C)C)cc2)c1O [Reference Synthetic Ex. 6, reference compound] | 1

Tested on: not listed separately
Experiment: Plasma concentration after oral administration to rats, determined by UT7/EPO-mpl proliferation bioassay
Type: in vivo
Details: rat, male Sprague-Dawley rats, 10 mg/kg, between 0.5 and 2 hours after administration, read-out: Cmax (maximum concentration in blood)
Experimental: Each of the compounds of Synthetic Examples was suspended in a 99/1 liquid mixture of 0.5% methylcellulose/Polyoxyethylene Sorbitan Monooleate and orally administered to 7-week-old male Sprague-Dawley rats (Japan SLC, Inc.) at a dose of 10 mg/kg/10 mL through a stomach tube. Between 0.5 and 2 hours after the administration of the compounds, blood was periodically collected from the cervical vein with heparin as the anticoagulant. The blood was centrifuged at 3500 min^−1 for 10 minutes to obtain plasma. The plasma was added to the assay system used for assay of proliferation of a thrombopoietin-dependent cell line UT7/EPO-mpl in Assay Example 1 at final concentrations of from 0.1 to 3%, and the cell proliferation was assayed. The concentration of each compound in plasma was calculated from the cell proliferation in the presence of plasma by comparison with a standard curve of cell proliferation versus compound concentration prepared for each compound. The maximum concentration (Cmax) of each of the compounds of Synthetic Examples in blood between 0.5 and 2 hours after the oral administration to rats is shown in Table 3.

Row | Structure (SMILES) | Cmax [ng/mL]
7 | CC(=NNC(=O)c1ccc(C(=O)NCc2ccccn2)s1)c1nn(C)c(-c2ccc(C(F)(F)F)cc2)c1O.[K] [Synthetic Example 2, 5-{1-[4-hydroxy-1-methyl-5-(4-trifluoromethylphenyl)-1H-pyrazol-3-yl]ethylidenehydrazinocarbonyl}thiophene-2-carboxylic Acid 2-picolylamide Potassium Salt] | 1200
8 | CCN(CC)C(=O)c1ccc(C(=O)NN=C(C)c2nn(C)c(-c3ccc(C(F)(F)F)cc3)c2O)s1.[K] [Synthetic Example 1, 5-{1-[4-hydroxy-1-methyl-5-(4-trifluoromethylphenyl)-1H-pyrazol-3-yl]ethylidenehydrazinocarbonyl}thiophene-2-carboxylic Acid Diethylamide Potassium Salt] | 760
